In PubChem BioAssay AID2060495 (Molecular Pharmacology Branch, DTP, NCI, 2025):
Several values for one entry are separate records, joined by “and”; a condition that tells them apart may be missing. Equal values may be shown once.

System: 521955-158-R2-J5-PDC complex spheroid viability
Assay: Anticancer human tumor 521955-158-R2-J5-PDC patient-derived pancreatic carcinoma cell line growth inhibition [GQUAD]
Conditions: for viability, T/C: stronger effect = lower value
Description: DNA G-quadruplex Stabilizer Agents in Combinations in Complex Spheroids
A high-throughput screen of multi-cell type tumor spheroids was designed to identify active combinations of DNA G-quadruplex stabilizer agents and targeted small molecules. Complex spheroids include a stromal component modeled by human endothelial cells (HUVEC) and fibroblasts modeled by human mesenchymal stem cells (MSCs). The concentration ranges selected for each drug and investigational agent were based upon clinically achievable concentrations if the clinical Cmax of the agent was known.
Compounds. The drugs and investigational agents: pidnarulex (CX-5461; NSC782164), APTO-253 (NSC789042), BRACO-19 (NSC847499), peposertib (NSC802822), ceralasertib (NSC780249), elimusertib (NSC800525), camonsertib (NSC841442), AZD-1390 (NSC803789), olaparib (NSC753686), talazoparib (NSC767125), ART-558 (NSC835418), sotorasib (NSC818433), MRTX-1133 (NSC836407), SN-38 (NSC673596), topotecan (NSC609699), etoposide (NSC141540), doxorubicin (NSC123127), gemcitabine (NSC613327), 5-fluorouracil (NSC19893), paclitaxel (NSC125973), vemurafenib (NSC761431), panobinostat (NSC761190), R-306465 (JNJ-16241199; NSC773264), adavosertib (NSC754352), TP-3654 (NSC805149), carboplatin (NSC241240), KSQ-4279 (NSC840948), and staurosporine (NSC755774) were obtained from the National Cancer Institute (NCI) Developmental Therapeutics Program Chemical Repository (34). The FDA-approved anticancer drug set is available from the NCI Developmental Therapeutics Program. […] The stock solutions were prepared in dimethyl sulfoxide (DMSO, Sigma-Aldrich, St. Louis, MO, cat. D2650) at 800-fold the tested concentration and stored at -70 degrees C prior to their use. All drugs and investigational agents were tested over a range starting from a high concentration at or near the clinical Cmax and decreasing in half-log increments. If the clinical Cmax for an agent had not been determined, the highest concentration tested was 10 microM.
2.3 Cell Culture. All cells were maintained in an incubator at 37 degrees C and 5% CO2 with 95% humidity. The PDC lines were cultured according to standard operating procedures established by the NCI PDMR. All PDCs were thawed and cultured in Matrigel-coated flasks prepared with a working solution of 1X Ham's F-12 nutrient mix, without supplementation (Invitrogen, cat. 11765054), 100 U/mL penicillin-streptomycin (Invitrogen, cat. 15140122), and 2.5% Matrigel (Corning Inc., cat. 354248) for the first three passages. The 857933-349-R-J2-PDC line was cultured in 6C/Colon 1B media, which includes advanced DMEM/F-12 (Thermo Fisher Scientific, cat. 12634028), 10 mM HEPES (Thermo Fisher Scientific, cat. 15630080), 1X GlutaMAX supplement (Thermo Fisher Scientific, cat. 35050061), 0.1 mg/mL primocin (InvivoGen, cat. ant-pm-2), 10% defined fetal bovine serum, heat inactivated (HyClone Laboratories Inc., cat. SH30070.03HI), 50% L-WRN conditioned media (ATCC, cat. CRL-3276), 1.25 mM N-Acetyl-L-cysteine (Sigma-Aldrich, cat. A9165), 10 mM nicotinamide (Sigma-Aldrich, cat. N0636), 1X B-27 supplement (Thermo Fisher Scientific, cat. 17504044), 1X N-2 supplement (Thermo Fisher Scientific, cat. 17502048), 10 microM Y-27632 dihydrochloride (Tocris Bioscience, cat. 1254), and 50 ng/mL human EGF recombinant protein (Thermo Fisher Scientific, cat. PHG0311). The 485176-168-R4-J1-PDC line was cultured in Panc media, which includes all 6C/Colon 1B media components plus 100 ng/mL human FGF-10 (Thermo Fisher Scientific, cat. 100-26), 500 nM SB-431542 (Selleckchem, cat. S1067), and gastrin (Tocris, cat. 3006).
[…]
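Also: spheroids exposed to agents for one week before reading.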
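For viability, T/C in this document: 100% = DMSO vehicle control viability.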

| SMILES | IC50 (curve of compound) | IC50 (compound alone, run of 04/22/2024) [nM] | viability, T/C (compound 0.0316 µM) | viability, T/C (compound 0.1 µM) | viability, T/C (compound 0.316 µM) | viability, T/C (compound 1 µM) | viability, T/C (compound 3.16 µM) | viability, T/C (compound 10 µM) | viability, T/C (compound 0.000999 µM) | viability, T/C (compound 0.00316 µM) | viability, T/C (compound 0.00999 µM) | viability, T/C (compound 0.0999 µM) |
| --- | --- | --- | --- | --- | --- | --- | --- | --- | --- | --- | --- | --- |
| C#Cc1c(F)ccc2cc(O)cc(-c3ncc4c(N5CC6CCC(C5)N6)nc(OCC56CCCN5CC(F)C6)nc4c3F)c12 (stereo not given) |  |  | 40.9% and 72.8% and 65.6% | 32.6% and 85% and 56.9% | 31.2% and 57.2% and 57.9% | 24.3% and 54.7% and 39.5% | 27.9% and 53.1% and 48.7% | 17.8% and 37.3% and 35.5% |  |  |  |  |
| C=CCn1c(=O)c2cnc(Nc3ccc(N4CCN(C)CC4)cc3)nc2n1-c1cccc(C(C)(C)O)n1 | 181 nM and 167 nM and 145 nM |  | 101% and 115% and 102% | 70.8% and 67% and 66.1% | 30.4% and 29.3% and 16% | 17.9% and 15.7% and 7.78% | 12.2% and 13.9% and 7.48% | 16.8% and 14.4% and 6.61% |  |  |  |  |
| CC(=O)O[C@H]1C(=O)[C@@]2(C)[C@H]([C@H](OC(=O)c3ccccc3)[C@]3(O)C[C@H](OC(=O)[C@H](O)[C@@H](NC(=O)c4ccccc4)c4ccccc4)C(C)=C1C3(C)C)[C@]1(OC(C)=O)CO[C@@H]1C[C@@H]2O | 50.9 nM and < 31.6 nM |  | 55.7% and 44.9% and 22.1% | 41.9% and 46.4% and 14.2% | 27.7% and 32.3% and 8.41% | 33.1% and 30.1% and 9.52% | 22.9% and 28.9% and 11.5% | 29.9% and 31.3% and 16% |  |  |  |  |
| CC(C)(O)C1CCC(Nc2ccc3ncc(-c4cccc(C(F)(F)F)c4)n3n2)CC1 (stereo not given) | 2100 nM and 2090 nM and 1920 nM |  | 120% and 105% and 102% | 109% and 101% and 81.3% | 107% and 114% and 115% | 110% and 112% and 125% | 15.4% and 16.3% and 6.66% | 18.2% and 18% and 8.13% |  |  |  |  |
| CCCS(=O)(=O)Nc1ccc(F)c(C(=O)c2c[nH]c3ncc(-c4ccc(Cl)cc4)cc23)c1F | > 10000 nM |  | 112% and 121% and 109% | 83.8% and 96.3% and 95% | 73.2% and 96.7% and 148% | 102% and 108% and 152% | 217% and 247% and 153% | 92.2% and 112% and 62.1% |  |  |  |  |
| CC[C@@]1(O)C(=O)OCc2c1cc1n(c2=O)Cc2cc3c(CN(C)C)c(O)ccc3nc2-1 | 66.9 nM and 93.2 nM and 76.6 nM |  | 86.6% and 79.7% and 91.3% |  | 8.07% and 27.5% and 13.2% |  |  |  | 109% and 110% and 79.9% | 84.8% and 101% and 96.6% | 96.3% and 112% and 92.2% | 30.5% and 50.2% and 38% |
| CCc1c2c(nc3ccc(O)cc13)-c1cc3c(c(=O)n1C2)COC(=O)[C@]3(O)CC | 1.51 nM and 2.59 nM and 1.71 nM |  | 6.38% and 17.9% and 8.13% |  | 3% and 10.7% and 2.39% |  |  |  | 71% and 85.3% and 74.8% | 12.1% and 39.8% and 21.3% | 7.66% and 28.1% and 9.19% | 5.13% and 11.7% and 5.42% |
| CN(C)c1ccc(Nc2c3ccc(NC(=O)CCN4CCCC4)cc3nc3cc(NC(=O)CCN4CCCC4)ccc23)cc1 |  | > 10000 | 107% [middle of 12 runs] | 103% [middle of 12 runs] | 98% [middle of 12 runs] | 89.4% [middle of 12 runs] | 82.5% [middle of 12 runs] | 72.5% [middle of 12 runs] |  |  |  |  |

The next lines start with results.

| IC50 (curve of compound) | IC50 (compound alone, run of 04/22/2024) [nM] | SMILES | viability, T/C (compound 0.0316 µM) | viability, T/C (compound 0.1 µM) | viability, T/C (compound 0.316 µM) | viability, T/C (compound 1 µM) | viability, T/C (compound 3.16 µM) | viability, T/C (compound 10 µM) | viability, T/C (compound 0.000999 µM) | viability, T/C (compound 0.00316 µM) | viability, T/C (compound 0.00999 µM) | viability, T/C (compound 0.0999 µM) |
| --- | --- | --- | --- | --- | --- | --- | --- | --- | --- | --- | --- | --- |
| > 10000 nM |  | C=CC(=O)N1CCN(c2nc(=O)n(-c3c(C)ccnc3C(C)C)c3nc(-c4c(O)cccc4F)c(F)cc23)C(C)C1 (stereo not given) | 86.9% and 107% and 102% | 95.5% and 94.6% and 97.9% | 84.9% and 115% and 119% | 110% and 98.3% and 102% | 109% and 115% and 123% | 91% and 91.9% and 80.9% |  |  |  |  |
| > 10000 nM |  | CC(C)n1c(=O)n(C)c2cnc3cc(F)c(-c4ccc(OCCCN5CCCCC5)nc4)cc3c21 | 115% (2×) and 100% | 96.9% and 107% and 94.7% | 114% (2×) and 80.2% | 91.4% and 95.4% and 89.3% | 96.3% and 107% and 96.1% | 95.6% and 95.5% and 84.2% |  |  |  |  |
| 56.7 nM and 64.6 nM and 55.3 nM |  | CC1COCCN1c1cc(-c2ccnn2C)c2ccnc(-c3ccn[nH]3)c2n1 (stereo not given) | 86% and 82.9% and 82.7% | 13.9% and 30.4% and 13.4% | 10.9% and 17.4% and 9.83% | 13.5% and 21.3% and 12.2% | 16.9% and 33.8% and 15.8% | 19.7% and 38.7% and 26.2% |  |  |  |  |
| < 31.6 nM and 41.8 nM |  | CC1COCCN1c1cc(C2(O)CC3CCC(C2)O3)c2cnn(-c3ccn[nH]3)c2n1 (stereo not given) | 32.7% and 40.2% and 58% | 11% and 10.8% and 17.1% | 11.7% and 12.3% and 23.7% | 15.8% and 17.1% and 31.5% | 19.6% and 19% and 32.1% | 6.3% and 8.53% and 21.2% |  |  |  |  |
| 693 nM and 909 nM and 705 nM |  | CC1COCCN1c1cc(C2(S(C)(=N)=O)CC2)nc(-c2ccnc3[nH]ccc23)n1 (stereo not given) | 109% and 97.3% and 99.7% | 100% and 91% and 89.6% | 97.3% and 109% and 127% | 28% and 45.5% and 25.8% | 9.05% and 14.9% and 6.37% | 11.1% and 16.7% and 11.6% |  |  |  |  |
